Laboratory results: PMC8464905, “Novel c-Jun N-Terminal Kinase (JNK) Inhibitors with an 11H-Indeno[1,2-b]quinoxalin-11-one Scaffold” (Molecules, 2021)
Like-named read-outs stand apart in the source and are kept apart here.

Key:
JNK3 [1] = target: T1, JNK3 (Homo sapiens, UniProt P53779); conditions: previously identified inhibitors; ref [35],[36]; cited from earlier work
T1 construct: purchased Eurofins Pharma Discovery (KINOMEscan)

JNK1 [2] = target: T2, JNK1 (Homo sapiens, UniProt P45983); conditions: previously identified inhibitors; ref [35],[36]; cited from earlier work
T2 construct: purchased Eurofins Pharma Discovery (KINOMEscan)

JNK2 [3] = target: T3, JNK2 (Homo sapiens, UniProt P45984); conditions: previously identified inhibitors; ref [35],[36]; cited from earlier work
T3 construct: purchased Eurofins Pharma Discovery (KINOMEscan)

JNK1-3 [4] = assay: KINOMEscan binding, statements for all three JNK isoforms; conditions: summary of Table 3
Method: (§1) Selected compounds were submitted for dissociation constant (Kd) determination using KINOMEscan (Eurofins Pharma Discovery, San Diego, CA, USA), as described previously. […] Primary screening at fixed concentrations of compounds was performed in duplicate.

JNK3 [5] = target: T1, JNK3; assay: KINOMEscan Kd determination, JNK3; conditions: duplicate, mean, N.B. = no binding at < 30 μM
Method: as §1

JNK2 [6] = target: T3, JNK2; assay: KINOMEscan Kd determination, JNK2; conditions: duplicate, mean, N.B. = no binding at < 30 μM
Method: as §1

THP-1Blue cells = assay: CellTiter-Glo cytotoxicity in THP-1Blue cells; assay type: cell-based, human; conditions: 24-h incubation, up to 50 μM
Method: (§2) All cells were cultured at 37 °C in a humidified atmosphere containing 5% CO2. THP1-Blue cells obtained from InvivoGen (San Diego, CA, USA) were cultured in RPMI 1640 medium (Mediatech Inc., Herndon, VA, USA) supplemented with 10% (v/v) fetal bovine serum (FBS), 100 μg/mL streptomycin, 100 U/mL penicillin, 100 μg/mL phleomycin (Zeocin), and 10 μg/mL blasticidin S. Human monocyte-macrophage MonoMac-6 cells (Deutsche Sammlung von Mikroorganismen und Zellkulturen GmbH, Braunschweig, Germany) were grown in RPMI 1640 medium supplemented with 10% (v/v) FBS, 10 μg/mL bovine insulin, 100 μg/mL streptomycin, and 100 U/mL penicillin.
(§3) Cytotoxicity was analyzed with a CellTiter-Glo Luminescent Cell Viability Assay Kit from Promega (Madison, WI, USA), according to the manufacturer’s protocol. Cells were treated with compounds under investigation and incubated for 24 h. After treatment, the cells were equilibrated to room temperature for 30 min, substrate was added, and the samples were analyzed with a Fluoroscan Ascent FL (Thermo Fisher Scientific, Waltham, MA, USA). The IC50 values were calculated by plotting percentage inhibition against the logarithm of inhibitor concentration (at least five points).

[7] = CellTiter-Glo cytotoxicity in THP-1Blue cells; assay type: cell-based, human; conditions: human, THP-1Blue cells; 24-h incubation, up to 50 μM; read-out: THP-1Blue Cell Cytotoxicity IC50
Method: as §2, §3

JNK1 [8] = target: T2, JNK1; assay: KINOMEscan Kd determination, JNK1; conditions: duplicate, mean, N.B. = no binding at < 30 μM
Method: as §1

MonoMac-6 cells = assay: CellTiter-Glo cytotoxicity in MonoMac-6 cells; assay type: cell-based, human; conditions: 24-h incubation, up to 50 μM
Method: as §2, §3

[9] = CellTiter-Glo cytotoxicity in MonoMac-6 cells; assay type: cell-based, human; conditions: human, MonoMac-6 cells; 24-h incubation, up to 50 μM; read-out: MonoMac-6 Cell Cytotoxicity IC50
Method: as §2, §3

NF-κB/AP-1 = assay: LPS-induced NF-κB/AP-1 alkaline phosphatase reporter assay in THP1-Blue cells; assay type: cell-based; conditions: Homo sapiens; 30 min pretreatment, 250 ng/mL LPS for 24 h; read-out: THP-1Blue Cell NF-κB/AP-1 IC50
Method: as §2
Activation of AP-1/NF-κB was measured using an alkaline phosphatase reporter gene assay in THP1-Blue cells. Human monocytic THP-1 Blue cells are stably transfected with a secreted embryonic alkaline phosphatase gene that is under the control of a promoter inducible by NF-κB/AP-1. THP1-Blue cells (2 × 10^5 cells/well) were pretreated with test compound or DMSO for 30 min, followed by addition of 250 ng/mL lipopolysaccharide (LPS) for 24 h, and alkaline phosphatase activity was measured in cell supernatants using QUANTI-Blue mix (InvivoGen) as absorbance at 655 nm and compared with positive control samples (LPS). For selected compounds, the concentrations of inhibitor that caused 50% inhibition of the NF-κB reporter activity (IC50) were calculated.

phospho-c-Jun (Ser63) = assay: LPS-induced c-Jun (Ser63) phosphorylation in MonoMac-6 cells (Western blotting); assay type: cell-based, human; conditions: 30 min pretreatment, LPS 250 ng/mL 30 min
Method: MonoMac-6 monocytic cells were pretreated with different concentrations of the compounds under investigation for 30 min and treated with LPS (250 ng/mL) or vehicle for another 30 min. Cells were washed twice with Hanks’ balanced salt solution, and cell lysates were prepared using lysis buffer from the JNK kinase assay kit (Cell Signaling Technology, Danvers, MA). Cell lysates (from 5 × 10^6 cells) were separated on ExpressPlus 4–20% PAGE Gels (GenScript, Piscataway, NJ, USA) using TRIS-MOPS running buffer (GenScript) and transferred to nitrocellulose membranes. The blots were probed with antibodies against c-Jun, phospho-c-Jun (Ser63), and total c-Jun (Cell Signaling Technology, Danvers, MA, USA), followed by horseradish peroxidase-conjugated secondary antibody (Cell Signaling Technology). The blots were developed using SuperSignal West Femto chemiluminescent substrate (Thermo Fisher Scientific) and visualized with a FluorChem FC2 imaging system (Alpha Innotech Corporation, San Leandro, CA, USA). Quantitation of the chemiluminescent signal was performed using AlphaView software (ver. 3.0; Alpha Innotech).

IL-6 [10] = assay: LPS-induced IL-6 production in MonoMac-6 cells (ELISA); assay type: cell-based; conditions: Homo sapiens, MONO-MAC-6; 30 min pretreatment, 250 ng/mL LPS for 24 h; read-out: MonoMac-6 Cell IL-6 IC50
Method: as §2
A human IL-6 ELISA kit (BD Biosciences, San Jose, CA, USA) was measure IL-6 production. MonoMac-6 cells were plated in 96-well plates at a density of 2 × 10^5 cells/well in culture medium supplemented with 3% (v/v) endotoxin-free FBS. The cells were pretreated with test compound or DMSO for 30 min, followed by addition of 250 ng/mL LPS for 24 h. IC50 values for IL-6 production were calculated by plotting percentage inhibition against the logarithm of inhibitor concentration (at least five points).

Water solubility = assay type: physicochemical
IL-6 [11] = system: IL-6; design: method as in PMID 22434859; conditions: LPS-induced; ref [35]; read-out: MonoMac-6 Cell IL-6 IC50; cited from earlier work
JNK1 [12] = target: T2, JNK1; design: method as in PMID 27027242, PMID 11717429, PMID 16759099, PMID 21666839; conditions: Figure 1; ref [25],[32],[33],[34]; cited from earlier work
JNK3 [13] = target: T1, JNK3; design: method as in PMID 27027242, PMID 11717429, PMID 16759099, PMID 21666839; conditions: Figure 1; ref [25],[32],[33],[34]; cited from earlier work
JNK1-3 [14] = system: JNK1-3; design: method as in PMID 27027242, PMID 11717429, PMID 16759099, PMID 21666839; conditions: Figure 1; ref [25],[32],[33],[34]; cited from earlier work

T1 sequence (P53779 whole entry): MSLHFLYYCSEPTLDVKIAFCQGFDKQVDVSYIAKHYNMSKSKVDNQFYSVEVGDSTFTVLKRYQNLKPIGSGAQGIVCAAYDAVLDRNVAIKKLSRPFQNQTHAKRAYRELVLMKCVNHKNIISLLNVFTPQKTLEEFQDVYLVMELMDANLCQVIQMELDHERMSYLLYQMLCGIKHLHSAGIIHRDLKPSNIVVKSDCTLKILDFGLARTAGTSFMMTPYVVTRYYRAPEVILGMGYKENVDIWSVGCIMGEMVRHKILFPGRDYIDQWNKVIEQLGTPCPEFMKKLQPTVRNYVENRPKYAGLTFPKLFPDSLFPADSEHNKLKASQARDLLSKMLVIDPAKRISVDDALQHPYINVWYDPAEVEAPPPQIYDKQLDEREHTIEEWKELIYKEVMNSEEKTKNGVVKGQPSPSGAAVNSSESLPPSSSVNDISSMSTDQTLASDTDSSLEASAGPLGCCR
T3 sequence (P45984 whole entry): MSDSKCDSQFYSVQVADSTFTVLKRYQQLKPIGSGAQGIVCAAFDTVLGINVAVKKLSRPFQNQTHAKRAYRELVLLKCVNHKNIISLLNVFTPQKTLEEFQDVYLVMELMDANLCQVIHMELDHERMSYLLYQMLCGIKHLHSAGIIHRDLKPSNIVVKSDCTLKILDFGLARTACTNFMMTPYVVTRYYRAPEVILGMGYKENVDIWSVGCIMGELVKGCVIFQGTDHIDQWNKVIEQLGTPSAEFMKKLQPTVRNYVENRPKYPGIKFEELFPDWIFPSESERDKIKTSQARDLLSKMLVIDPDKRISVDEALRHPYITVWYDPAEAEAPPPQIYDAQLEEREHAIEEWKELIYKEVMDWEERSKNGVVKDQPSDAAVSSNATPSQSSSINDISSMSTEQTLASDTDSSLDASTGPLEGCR
T2 sequence (P45983 whole entry): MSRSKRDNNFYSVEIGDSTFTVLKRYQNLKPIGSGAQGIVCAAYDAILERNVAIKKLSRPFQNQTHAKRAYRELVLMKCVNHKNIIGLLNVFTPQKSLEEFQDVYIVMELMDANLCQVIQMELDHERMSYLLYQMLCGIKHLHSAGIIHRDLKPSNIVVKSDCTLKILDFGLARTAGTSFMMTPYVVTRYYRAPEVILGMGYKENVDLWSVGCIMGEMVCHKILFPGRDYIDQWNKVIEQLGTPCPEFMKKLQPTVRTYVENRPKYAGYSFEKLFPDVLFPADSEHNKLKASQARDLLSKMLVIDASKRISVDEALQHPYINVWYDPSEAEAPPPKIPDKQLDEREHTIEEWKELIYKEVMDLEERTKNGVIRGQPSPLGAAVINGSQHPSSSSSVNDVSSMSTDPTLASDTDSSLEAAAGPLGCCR

| Compound | Binding affinity (Kd) for all three JNK isoforms, in words (JNK1-3 [4]) | Kd (JNK3 [5]) | Kd (JNK2 [6]) | IC50 at 24 h [7] | melting point | Kd (JNK1 [8]) | IC50 at 24 h [9] | IC50 (NF-κB/AP-1) | other results |
| --- | --- | --- | --- | --- | --- | --- | --- | --- | --- |
| O=[N+]([O-])c1ccc2nc3c(nc2c1)-c1ccccc1/C3=N/O [B] |  |  |  |  |  |  |  |  | Kd (JNK3 [1]): 4300 nM; Kd (JNK1 [2]): 6000 nM; Kd (JNK2 [3]): 12000 nM |
| O/N=C1/c2ccccc2-c2nc3ccc(Cl)cc3nc21 [C] |  |  |  |  |  |  |  |  | Kd (JNK3 [1]): 700 nM; Kd (JNK1 [2]): 1100 nM; Kd (JNK2 [3]): 21500 nM |
| Cc1cc(Br)cc2nc3c(nc12)-c1ccccc1C3=NO [Compound 4c, 6-Methyl-8-bromo-11H-indeno[1,2-b]quinoxalin-11-one Oxime] | inactive | > 30000 nM | > 30000 nM | 37500 ± 1700 nM | 255 to 256 °C | > 30000 nM | 14600 ± 1200 nM |  | THP-1Blue Cell Cytotoxicity IC50 (THP-1Blue cells): exhibited cytotoxicity; MonoMac-6 Cell Cytotoxicity IC50 (MonoMac-6 cells): cytotoxic |
| ON=C1c2ccccc2-c2nc3cc(F)c(F)cc3nc21 [Compound 4f, 7,8-Difluoro-11H-indeno[1,2-b]quinoxalin-11-one Oxime] |  | 520 ± 300 nM | > 30000 nM | > 50000 nM | 250 to 251 °C | 170 ± 40 nM | > 50000 nM | 1100 ± 400 nM | Effect on LPS-induced c-Jun (Ser63) phosphorylation (phospho-c-Jun (Ser63)): inhibited c-Jun phosphorylation; JNK2 Kd (JNK2 [6]): did not bind; IC50 (IL-6 [10]): 14000 ± 2800 nM |
| ON=C1c2ccccc2-c2nc3c(F)c(F)ccc3nc21 [Compound 4g, 6,7-Difluoro-11H-indeno[1,2-b]quinoxalin-11-one Oxime] |  | 1100 ± 100 nM | 910 ± 60 nM | > 50000 nM | 257 to 258 °C | 520 ± 90 nM | 32000 ± 2200 nM | 2100 ± 400 nM | MonoMac-6 Cell Cytotoxicity IC50 (MonoMac-6 cells): cytotoxic |
| ON=C1c2ccccc2-c2nc3c(Br)cc(C(F)(F)F)cc3nc21 [Compound 4h, 6-Bromo-8-(trifluoromethyl)-11H-indeno[1,2-b]quinoxalin-11-one Oxime] | inactive | > 30000 nM | > 30000 nM | > 50000 nM | 236 to 237 °C | > 30000 nM | 29000 ± 2500 nM | 2500 ± 600 nM | MonoMac-6 Cell Cytotoxicity IC50 (MonoMac-6 cells): cytotoxic |
| COC(=O)c1ccc2nc3c(nc2c1)C(=NO)c1ccccc1-3 [Compound 4l, Methyl-11-(hydroxyimino)-11H-indeno[1,2-b]quinoxaline-8-carboxylate] | submicromolar | 710 ± 50 nM | 2400 ± 200 nM | 26100 ± 5300 nM | 300 to 301 °C | 910 ± 160 nM | > 50000 nM |  | THP-1Blue Cell Cytotoxicity IC50 (THP-1Blue cells): exhibited cytotoxicity; IC50 (IL-6 [10]): > 50000 nM |
| ON=C1c2ccccc2-c2nc3c(CN4CCOCC4)cccc3nc21 [Compound 4m, 6-(Morpholinomethyl)-11H-indeno[1,2-b]quinoxalin-11-one Oxime] | relatively high binding affinity | 910 ± 300 nM | 880 ± 100 nM | > 50000 nM | 210 to 211 °C | 1100 ± 100 nM | > 50000 nM | 100 ± 50 nM | Water solubility (Water solubility): high water solubility; Effect on LPS-induced c-Jun (Ser63) phosphorylation (phospho-c-Jun (Ser63)): inhibited c-Jun phosphorylation; IC50 (IL-6 [10]): 800 ± 100 nM |
| Cc1ccc2nc3c(nc2c1)-c1ccccc1/C3=N/O [D] |  |  |  |  |  |  |  |  | Kd (JNK3 [1]): 300 nM; Kd (JNK1 [2]): 700 nM; Kd (JNK2 [3]): 800 nM |
| ON=C1c2ccccc2-c2nc3ccccc3nc21 [IQ-1, 11H-indeno[1,2-b]quinoxalin-11-one oxime] |  |  |  |  |  |  |  |  | IC50 (IL-6 [11]): 3400 ± 800 nM |
| Cc1ccc(-c2ncn(-c3ccc(Nc4nccc(-c5cccc(N6CCOCC6)c5)n4)cc3)n2)cn1 [SR-3306] |  |  |  |  |  |  |  |  | IC50 (JNK1 [12]): 159 nM; IC50 (JNK3 [13]): 67 nM |
| SP600125 |  |  |  |  |  |  |  |  | IC50 (JNK1-3 [14]): 40 to 90 nM |
